What all share (format): cell-based
Experiment [1] deals with A375 cells. Nature of the experiment: Tumor cell line proliferation assay (CellTiter Glo), A375. Conditions: Homo sapiens, A-375, 96 h, read-out: A375 (V599E) Cell Proliferation IC50. (In general: ATP-based viability assays read luminescence as a measure of living cells.)
Experiment [2] has as its system phospho-p90 RSK (RSK1 Thr359/Ser363) in A375 (Braf V600E) cells. The experiment in a line: Phospho-p90 RSK ELISA using A375 (Braf V600E) cells. The settings on record: Homo sapiens, A-375, 2 hours compound treatment, read-out: Cellular Phospho-p90RSK IC50. In general terms: In an ELISA, binding on a coated surface is turned into a signal by an enzyme label.
In experiment [3] the test system is H358 (Kras, G12C) cells. Nature of the experiment: Tumor cell line proliferation assay (CellTiter Glo), H358. The settings on record: Homo sapiens, NCI-H358, 96 hours.

On to `Cc1cc(-c2n[nH]c3cc4c(cc23)CN([C@H](CO)c2cccc(Cl)c2)C(=O)N4)ccn1` [Example 26], for which the IC50 is 250 to 1000 nM in experiment [1], not above 250 nM in experiment [2] and more than 1000 nM in experiment [3].

With `Cc1cc(-c2n[nH]c3cc4[nH]c(=O)n(Cc5ccccc5)c(=O)c4cc23)ccn1` [Example 27], the IC50 in experiment [1] is more than 1000 nM; in experiment [2] it was 250 to 1000 nM; in experiment [3], more than 1000 nM.

Take `Cc1cc(-c2n[nH]c3cc4c(cc23)CN(Cc2ccc(F)cc2)C(=O)N4)ccn1` [Example 30]: the IC50 is 250 to 1000 nM in experiment [1], not above 250 nM in experiment [2] and 250 to 1000 nM in experiment [3].

`Cn1cc(-c2n[nH]c3cc4c(cc23)CN(Cc2ccc(F)c(Cl)c2)C(=O)N4)cn1` [Example 31]: the figures for the IC50 in experiment [1], in experiment [2] and in experiment [3] were 250 to 1000 nM, not above 250 nM and 250 to 1000 nM, respectively.

In the case of `Cc1cc(-c2n[nH]c3cc4c(cc23)CN([C@@H]2CCCNC2)C(=O)N4)ccn1` [Example 32], the IC50 in experiment [1], in experiment [2] and in experiment [3] was more than 1000 nM each time.

On to `Cc1cc(-c2n[nH]c3cc4c(cc23)CN([C@@H]2CCCN(C)C2)C(=O)N4)ccn1` [Example 33], for which the IC50 in experiment [1], in experiment [2] and in experiment [3] was more than 1000 nM each time.

As for `Cc1cc(-c2n[nH]c3cc4c(cc23)CN(C2CCNCC2)C(=O)N4)ccn1` [Example 34], the IC50 in experiment [1], in experiment [2] and in experiment [3] was more than 1000 nM in each case.

With `Cc1cc(-c2n[nH]c3cc4c(cc23)CN([C@H](C)c2cccc(Cl)c2)C(=O)N4)ccn1` [Example 35], the IC50 in experiment [1] was 250 to 1000 nM; in experiment [2], not above 250 nM; in experiment [3], not above 250 nM.

With `COc1ccc(-c2n[nH]c3cc4c(cc23)CN(Cc2ccc(F)c(Cl)c2)C(=O)N4)cn1` [Example 36], the IC50 in experiment [1], in experiment [2] and in experiment [3] was 250 to 1000 nM throughout.

As to `COc1ncc(-c2n[nH]c3cc4c(cc23)CN(Cc2ccc(F)c(Cl)c2)C(=O)N4)cn1` [Example 37], the IC50 in experiment [1] is 250 to 1000 nM; in experiment [2], not above 250 nM; in experiment [3], 250 to 1000 nM.

With `Cc1cc(-c2n[nH]c3cc4c(cc23)CN(Cc2ccc(C#N)cc2)C(=O)N4)ccn1` [Example 39], the IC50 in experiment [1] was more than 1000 nM; in experiment [2], 250 to 1000 nM; in experiment [3] it was 250 to 1000 nM.

In the case of `Cn1cc(-c2n[nH]c3cc4c(cc23)CN(Cc2ccc(F)c(Cl)c2)C(=O)N4)ccc1=O` [Example 41], the IC50 in experiment [1] is 250 to 1000 nM; in experiment [2], not above 250 nM; in experiment [3], 250 to 1000 nM.

Consider `Cc1cc(-c2n[nH]c3cc4c(cc23)CN(Cc2cscn2)C(=O)N4)ccn1` [Example 47], for which the IC50 in experiment [1] was more than 1000 nM; in experiment [2] it was 250 to 1000 nM; in experiment [3], more than 1000 nM.

As to `Cc1cc(-c2n[nH]c3cc4c(cc23)CN([C@@H]2CCCOC2)C(=O)N4)ccn1` [Example 49], the IC50 in experiment [1] is more than 1000 nM; in experiment [2], 250 to 1000 nM; in experiment [3], more than 1000 nM.

In the case of `Cc1cc(-c2n[nH]c3cc4c(cc23)CN([C@@H]2CCCN(Cc3ccccc3)C2)C(=O)N4)ccn1` [Example 63], the IC50 in experiment [1], in experiment [2] and in experiment [3] was not above 250 nM each time.

Consider `CCC(c1ccccc1)c1cc2cc3c(-c4ccnc(C)c4)n[nH]c3cc2[nH]c1=O` (centres unmarked) [Example 64], for which the IC50 in experiment [1], in experiment [2] and in experiment [3] was not above 250 nM in each case.

With `COc1ncc(-c2n[nH]c3cc4c(cc23)CN(Cc2cccc(Cl)c2)C(=O)N4)cn1` [Example 68], the IC50 in experiment [1] was not above 250 nM; in experiment [2], not above 250 nM; in experiment [3] it was 250 to 1000 nM.

With `Cn1cc(-c2n[nH]c3cc4c(cc23)CN([C@@H]2CCCN(Cc3ccccc3)C2)C(=O)N4)cn1` [Example 285], the IC50 in experiment [1] and in experiment [2] was not above 250 nM throughout.

For the compound `Cc1cc(-c2n[nH]c3cc4c(cc23)CN([C@@H]2CCCN(Cc3sccc3F)C2)C(=O)N4)ccn1` [Example 291], the IC50 in experiment [1] and in experiment [2] was not above 250 nM each time.

For `Cc1ncc(-c2n[nH]c3cc4c(cc23)CN([C@@H]2CCCN(Cc3ccccc3)C2)C(=O)N4)cn1` [Example 292], the IC50 in experiment [1] and in experiment [2] was not above 250 nM each time.

Regarding `Cc1ncc(-c2n[nH]c3cc4c(cc23)CN([C@@H]2CCCN(Cc3ccc(F)cc3F)C2)C(=O)N4)cn1` [Example 293], the IC50 in experiment [1] and in experiment [2] was not above 250 nM throughout.

Turning to `Cc1cc(-c2n[nH]c3cc4c(cc23)CN([C@H]2CCN(Cc3ccccc3)C2)C(=O)N4)ccn1` [Example 301], the IC50 in experiment [1] was 250 to 1000 nM; in experiment [2], not above 250 nM.

For the compound `CC(c1ccccc1)c1cc2cc3c(-c4ccnc(N5CCN(C)CC5)c4)n[nH]c3cc2[nH]c1=O` (centres unmarked) [Example 318], the IC50 in experiment [1] and in experiment [2] was not above 250 nM throughout.

For the compound `COc1ncc(-c2n[nH]c3cc4c(cc23)CN(C2CN(Cc3ccccc3)CC(F)(F)C2)C(=O)N4)cn1` (centres unmarked) [Example 320], the IC50 in experiment [1] is 250 to 1000 nM; in experiment [2], not above 250 nM.

`CC(c1ccccc1)c1cc2cc3c(-c4ccnnc4)n[nH]c3cc2[nH]c1=O` (centres unmarked) [Example 323]: the IC50 in experiment [1] was 250 to 1000 nM; in experiment [2], not above 250 nM.

Turning to `CC(c1ccccc1)c1cc2cc3c(-c4ccc(N5CCOCC5)nc4)n[nH]c3cc2[nH]c1=O` (centres unmarked) [Example 324], the IC50 in experiment [1] and in experiment [2] was not above 250 nM throughout.

Consider `CC(c1ccccc1)c1cc2cc3c(-c4ccnc(N5CCOCC5)c4)n[nH]c3cc2[nH]c1=O` (centres unmarked) [Example 325], for which the IC50 in experiment [1] and in experiment [2] was not above 250 nM in each case.

For `CC(c1ccccc1)c1cc2cc3c(-c4ccncc4)n[nH]c3cc2[nH]c1=O` (centres unmarked) [Example 326], the IC50 in experiment [1] and in experiment [2] was not above 250 nM each time.

As for `Cc1cc(-c2n[nH]c3cc4[nH]c(=O)c(C(CO)c5ccccc5)cc4cc23)ccn1` (centres unmarked) [Example 328], the results for the IC50 in experiment [1] and in experiment [2] were 250 to 1000 nM and not above 250 nM, respectively.

Turning to `CC(c1ccccc1)c1cc2cc3c(-c4cccnc4)n[nH]c3cc2[nH]c1=O` (centres unmarked) [Example 330], the IC50 in experiment [1] was 250 to 1000 nM; in experiment [2], not above 250 nM.

`Cc1cc(-c2n[nH]c3cc4c(cc23)CN([C@@H]2CN(CC(F)(F)F)C[C@H]2C(F)(F)F)C(=O)N4)ccn1` [Example 331]: the IC50 in experiment [1] and in experiment [2] was 250 to 1000 nM each time.

As to `Cc1cc(-c2n[nH]c3cc4[nH]c(=O)c(C5CCCN(Cc6ccccc6)C5)cc4cc23)ccn1` (centres unmarked) [Example 332], the IC50 in experiment [1] and in experiment [2] was not above 250 nM in each case.

Consider `CC(c1ccccc1)c1cc2cc3c(-c4cnn(C)c4)n[nH]c3cc2[nH]c1=O` (centres unmarked) [Example 333], for which the IC50 in experiment [1] and in experiment [2] was not above 250 nM in each case.

Regarding `CC(c1ccccc1)c1cc2cc3c(NC4CCOCC4)n[nH]c3cc2[nH]c1=O` (centres unmarked) [Example 338], the IC50 in experiment [1] and in experiment [2] was not above 250 nM each time.

Turning to `C[C@H](c1ccccc1)c1cc2cc3c(NC4CCOCC4)n[nH]c3cc2[nH]c1=O` [Example 357], the IC50 in experiment [1] and in experiment [2] was not above 250 nM each time.

On to `COc1ncc(-c2n[nH]c3cc4[nH]c(=O)c(C5CCCN(Cc6ccccc6)C5)cc4cc23)cn1` (centres unmarked) [Example 364], for which the IC50 in experiment [1] and in experiment [2] was not above 250 nM in each case.

Values taken from patent US10301317B2, “Inhibitors of ERK and methods of use” (Kura Oncology, Inc., priority 2013, dated 2019).
